Results from patent publication US10925858B2, “S-nitrosoglutathione (GSNO) and GSNO reductase inhibitors for use in therapy” (MUSC FOUNDATION FOR RESEARCH DEVELOPMENT, priority 2017, dated 2021).

What was measured:
[1] = test system: RhoA; test: RhoA activity assay in thrombin treated hBMVECs; format: cell-based, human; conditions: thrombin 0.1 unit/ml 5 min; L-NIO or FeTPPS 10 μM pretreated 30 min; GSNO or SIN-1 various concentrations pretreated 2 hr
Method: (§1) Cell culture: Primary human brain microvascular endothelial cells (hBMVECs) were purchased from Angio-Proteomie (Cat #: cAP-0002, Atlanta, Ga.). The cells were cultured in cell culture flasks or plates precoated with Quick Coating Solution (Angio-Proteomie; Cat #: cAP-01) and maintained in Endothelial Growth Medium (Angio-Proteomie; Cat #: cAP-02) at 37° C. under 5% CO2/95% air. When the cells were almost confluent, the medium was replaced with endothelial basal medium (Angio-Proteomie; Cat #: cAP-03) containing 0.5% fetal bovine serum (FBS; Life Technologies, Grand Island, N.Y.) about 8-12 hours before the experiment. No institutional approval was required for this study. The study was not pre-registered.
RhoA activity in hBMVECs was analyzed by RhoA Activation Assay Kit (Abeam Cat #: ab211164, Cambridge, Mass.). Briefly, following drug treatments, the cells were lysed with 1× Assay buffer provided in the kit. Lysates were centrifuged (14,000×g for 10 sec), and supernatants were incubated with agarose beads coupled to GST-Rhotekin-Rho binding domain (RBD) for 2 h at 4° C. Beads were then washed with 1× Assay buffer and GTP-bound RhoA was eluted with 2×SDS-PAGE sample buffer. Amounts of active (GTP-bound) RhoA were determined by Western blot analysis using antibody specific to RhoA (Abeam).

[2] = test system: intracellular Ca^2+ ([Ca^2+]i) influx; test: Assay for intracellular Ca2+ influx in thrombin treated hBMVECs; format: cell-based, human; conditions: thrombin 0.1 unit/ml; L-NIO or FeTPPS 10 μM; GSNO or SIN-1 various concentrations
Method: as §1, with “pre-registered. Intracellular Ca^2+ concentration ([Ca^2+]i) was measured with Fluo-4 Direct Calcium Assay Kit (Thermo Fisher Scientific, Cat #: F10471, Grand Island, N.Y.). Briefly, culture medium in the 96-well plate was replaced with a Ca^2+ sensitive dye Fluo-4 in an endothelial basal medium. After 30 min incubation, the dye was removed and cells were incubated with the original medium with or without the drugs at 37° C. for 15 min. Following thrombin treatment, time course changes of fluorescent intensity were quantified using a CLARIOstar multi-well fluorometer (BMG Labtech, Cary, N.C.).” for “pre-registered.”

[3] = test system: CD4+ T cells (TH1, TH2, TH17, Treg); test: Fluorescence flow cytometry of CD4+ T cell subsets in spinal cords of EAE mice; format: in vivo, C57BL/6 mice; conditions: EAE mice at peak of disease, 1 mg/kg/day
Method: Female C57BL/6 mice of 8-12 weeks of age, purchased from Jackson Laboratory, were provided with food and water ad libitum and were kept in pathogen free animal care facility of Medical University of South Carolina (MUSC) throughout the study. All procedures were conducted in accordance with accepted standards of humane care as approved by the Institutional Animal Care and Use Committee (Approved number: AR #1644). EAE was induced as described previously (Nath et al., 2009). Briefly, mice were immunized subcutaneously in the flank regions with MOG35-55 peptide (MOG; 200 μg; Peptide International) emulsified (1:1) in 100 ul complete Freund's adjuvant (CFA) on day 0 and day 7. Additionally, 300 ng of Pertussis toxin (Sigma-Aldrich, St. Louis, Mo.) was given on day 0 and day 2 by i.p. injection. Pertussis toxin used as per the standardized protocol reported by us and other investigators for the induction of EAE (Nath et al., 2009). Similarly, healthy control group received subcutaneous injection of PBS and CFA emulsion on day 0 and day 7. Clinical signs of EAE were scored by examiners blinded to experimental treatments using the following scale: 0=no clinical signs of disease; 1=piloerection and sluggish; 2=limp tail (ataxia); 2.5=ataxia with partial hind limb paralysis; 3=full paralysis of hind limb; 3.5=full paralysis of hind limb with paralysis of one fore limb; 4=full paralysis of two limbs; 4.5=moribund stage; 5=death. […] The drug treatments were continued till the termination of the study (day 41 post immunization). EAE animals without drug treatment received PBS. Likewise, healthy controls received vehicle.
Fluorescence flow cytometry analysis for each subset of CD4+ T cells (TH1, TH2, TH17, CD4+CD25+ FOXP3+ Treg, and CD4+CD25+ FOXP3− Treg) were performed based on our previous report with modification (Nath et al., 2004). Briefly, control mice, EAE mice. EAE mice treated with GSNO. […] The isolated CD4+ T cells were then resuspended with complete RPMI-media in 12-well plates (5×10^6 cells' 2 ml per well) containing MOG peptide (25 μg/ml) for 48 hrs. Following the centrifugation, the resulted supernatants were collected for ELISA for CD4+ subset specific cytokines (see below). The cell pellets were washed with cell staining solution (ebioscience, Waltham, Mass. USA) and stained with fluorescence labeled antibody specific to IFN-γ for TH1. IL-4 for TH2, IL-17 for TH17, CD25+ for total Treg. CD25+ and FOXP3+ for FOXP3+ Treg, and CD25+ and FOXP3− for FOXP3-Tregs (ebioscience, Waltham, Mass., USA). The cells were counted and analyzed using Beackman Coulter instrument (Beckman Coulter, Inc., Brea, Calif., USA).

## Cl.O=S(=O)([O-])c1ccc(-c2c3nc(c(-c4ccc(S(=O)(=O)O)cc4)c4ccc([nH]4)c(-c4ccc(S(=O)(=O)O)cc4)c4nc(c(-c5ccc(S(=O)(=O)O)cc5)c5ccc2[nH]5)C=C4)C=C3)cc1.[Fe] [FeTPPS, 5,10,15,20-Tetrakis(4-sulfonatophenyl)porphyrinato Iron (III), Cl, reference compound]
[1]
  thrombin-induced RhoA activation: decreased
[2]
  thrombin-induced intracellular Ca2+ influx: had not effect

## Cc1cc(C(N)=O)ccc1-n1c(CCC(=O)O)ccc1-c1ccc(-n2ccnc2)cc1 [N6022, reference compound]
[3]
  number of CD4+ IFN-γ+ (TH1) cells in spinal cords: reduced
  number of CD4+ IL-17 (TH17) cells in spinal cords: reduced
  number of CD4+CD25+ FOXP3+ Treg cells in spinal cords: increased
  number of CD4+CD25+ FOXP3− Treg cells in spinal cords: increased
  number of TH2 cells in the CNS: increased

## N[C@@H](CCC(=O)N[C@@H](CSN=O)C(=O)NCC(=O)O)C(=O)O [GSNO, S-nitrosoglutathione]
[3]
  number of CD4+ IFN-γ+ (TH1) cells in spinal cords: no obvious effect
  number of CD4+ IL-17 (TH17) cells in spinal cords: significantly decreased
  number of CD4+CD25+ FOXP3+ Treg cells in spinal cords: without altering
  number of CD4+CD25+ FOXP3− Treg cells in spinal cords: significantly increased
  number of total Treg cells (CD4+CD25+) in spinal cords: increased
[1]
  thrombin-induced RhoA activation: inhibited
[2]
  thrombin-induced intracellular Ca2+ influx: inhibited
